Measured values taken from PubChem BioAssay (NCI).
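Values below derive from 48-hour exposures of cells grown in 96-well plates, with endpoints linearly interpolated between the two concentrations bracketing the appropriate inhibition level. Abbreviation: GI50, concentration required for 50% inhibition of growth. TGI: total growth inhibition.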

Legend:
Experiment in all cases: NCI-60 cell line screen, 48 h
CAKI-1 renal = tested on: CAKI-1 renal
DLD-1 colon = tested on: DLD-1 colon
KM20L2 colon = tested on: KM20L2 colon
NCI-H226 lung = tested on: NCI-H226 lung
NCI-H522 lung = tested on: NCI-H522 lung
OVCAR-5 ovarian = tested on: OVCAR-5 ovarian
SK-MEL-28 melanoma = tested on: SK-MEL-28 melanoma
SNB-75 CNS = tested on: SNB-75 CNS
SR leukemia = tested on: SR leukemia
UACC-62 melanoma = tested on: UACC-62 melanoma
UO-31 renal = tested on: UO-31 renal
786-0 renal = tested on: 786-0 renal
A549 NSCLC = tested on: A549 NSCLC
ACHN renal = tested on: ACHN renal
CCRF-CEM leukemia = tested on: CCRF-CEM leukemia
COLO 205 colon = tested on: COLO 205 colon
DMS 114 small cell lung = tested on: DMS 114 small cell lung
DMS 273 small cell lung = tested on: DMS 273 small cell lung
EKVX NSCLC = tested on: EKVX NSCLC
HCC-2998 colon = tested on: HCC-2998 colon
HCT-15 colon = tested on: HCT-15 colon
HL-60(TB) leukemia = tested on: HL-60(TB) leukemia
HOP-62 NSCLC = tested on: HOP-62 NSCLC
HOP-92 NSCLC = tested on: HOP-92 NSCLC
IGROV1 ovarian = tested on: IGROV1 ovarian
K-562 leukemia = tested on: K-562 leukemia
KM12 colon = tested on: KM12 colon
LOX IMVI melanoma = tested on: LOX IMVI melanoma
LXFL 529 NSCLC = tested on: LXFL 529 NSCLC
M14 melanoma = tested on: M14 melanoma
M19-MEL melanoma = tested on: M19-MEL melanoma
MALME-3M melanoma = tested on: MALME-3M melanoma
MOLT-4 leukemia = tested on: MOLT-4 leukemia
NCI-H23 lung = tested on: NCI-H23 lung
NCI-H460 lung = tested on: NCI-H460 lung
OVCAR-3 ovarian = tested on: OVCAR-3 ovarian
OVCAR-4 ovarian = tested on: OVCAR-4 ovarian
OVCAR-8 ovarian = tested on: OVCAR-8 ovarian
RPMI-8226 leukemia = tested on: RPMI-8226 leukemia
RXF 393 renal = tested on: RXF 393 renal
SF-268 CNS = tested on: SF-268 CNS
SF-295 CNS = tested on: SF-295 CNS
SK-MEL-2 melanoma = tested on: SK-MEL-2 melanoma
SK-MEL-5 melanoma = tested on: SK-MEL-5 melanoma
SK-OV-3 ovarian = tested on: SK-OV-3 ovarian
SN12C renal = tested on: SN12C renal
SNB-19 CNS = tested on: SNB-19 CNS
SNB-78 CNS = tested on: SNB-78 CNS
SW-620 colon = tested on: SW-620 colon
TK-10 renal = tested on: TK-10 renal
UACC-257 melanoma = tested on: UACC-257 melanoma
XF 498 CNS = tested on: XF 498 CNS
A498 renal = tested on: A498 renal
HCT-116 colon = tested on: HCT-116 colon
HT29 colon = tested on: HT29 colon
SF-539 CNS = tested on: SF-539 CNS
U251 CNS = tested on: U251 CNS

Molecule O=C([O-])C([O-])C([O-])C(=O)[O-].[Co+3].c1ccc(-c2ccnc3c2ccc2c(-c4ccccc4)ccnc23)cc1.c1ccc(-c2ccnc3c2ccc2c(-c4ccccc4)ccnc23)cc1.c1ccc(-c2ccnc3c2ccc2c(-c4ccccc4)ccnc23)cc1 has a GI50 (CAKI-1 renal) of 0.0339 µM, a TGI (CAKI-1 renal) of 0.235 µM and a TGI (DLD-1 colon) of 1.6 µM. It also gave a TGI (KM20L2 colon) of 0.291 µM, a TGI (NCI-H226 lung) of 0.27 µM and a TGI (NCI-H522 lung) of 0.128 µM. For the same molecule, the TGI (OVCAR-5 ovarian) was 1.65 µM, the TGI (SK-MEL-28 melanoma) was 1.96 µM and the TGI (SNB-75 CNS) was over 100 µM. The TGI (SR leukemia) was 0.207 µM, the TGI (UACC-62 melanoma) was 0.407 µM and the TGI (UO-31 renal) was 0.0823 µM.

Work on C=C(c1ccccc1)c1cc2c(=O)[nH]ccc2n1C yielded a TGI (786-0 renal) of over 100 µM, a TGI (A549 NSCLC) of over 100 µM and a TGI (ACHN renal) of over 100 µM. It also gave a TGI (CAKI-1 renal) of over 100 µM, a TGI (CCRF-CEM leukemia) of over 100 µM and a TGI (COLO 205 colon) of 35.6 µM. For the same molecule, the TGI (DLD-1 colon) was over 100 µM, the TGI (DMS 114 small cell lung) was 50.1 µM and the TGI (DMS 273 small cell lung) was over 100 µM. For the same molecule, the TGI (EKVX NSCLC) was over 100 µM, the TGI (HCC-2998 colon) was over 100 µM and the TGI (HCT-15 colon) was over 100 µM. For the same molecule, the TGI (HL-60(TB) leukemia) was 38.1 µM, the TGI (HOP-62 NSCLC) was over 100 µM and the TGI (HOP-92 NSCLC) was 61.3 µM. For the same molecule, the TGI (IGROV1 ovarian) was over 100 µM, the TGI (K-562 leukemia) was 46.3 µM and the TGI (KM12 colon) was over 100 µM. For the same molecule, the TGI (KM20L2 colon) was 59.7 µM, the TGI (LOX IMVI melanoma) was over 100 µM and the TGI (LXFL 529 NSCLC) was over 100 µM. It also gave a TGI (M14 melanoma) of over 100 µM, a TGI (M19-MEL melanoma) of over 100 µM and a TGI (MALME-3M melanoma) of over 100 µM. It also gave a TGI (MOLT-4 leukemia) of over 100 µM, a TGI (NCI-H23 lung) of over 100 µM and a TGI (NCI-H460 lung) of over 100 µM. The TGI (NCI-H522 lung) was 54.9 µM, the TGI (OVCAR-3 ovarian) was over 100 µM and the TGI (OVCAR-4 ovarian) was over 100 µM. It also gave a TGI (OVCAR-5 ovarian) of over 100 µM, a TGI (OVCAR-8 ovarian) of over 100 µM and a TGI (RPMI-8226 leukemia) of over 100 µM. It also gave a TGI (RXF 393 renal) of 86.1 µM, a TGI (SF-268 CNS) of over 100 µM and a TGI (SF-295 CNS) of 82.9 µM. It also gave a TGI (SK-MEL-2 melanoma) of 58.3 µM, a TGI (SK-MEL-28 melanoma) of over 100 µM and a TGI (SK-MEL-5 melanoma) of 71.1 µM. For the same molecule, the TGI (SK-OV-3 ovarian) was 69.4 µM, the TGI (SN12C renal) was over 100 µM and the TGI (SNB-19 CNS) was over 100 µM. It also gave a TGI (SNB-75 CNS) of 45.6 µM, a TGI (SNB-78 CNS) of over 100 µM and a TGI (SW-620 colon) of over 100 µM. The TGI (TK-10 renal) was over 100 µM, the TGI (UACC-257 melanoma) was over 100 µM and the TGI (UACC-62 melanoma) was over 100 µM. It also gave a TGI (UO-31 renal) of 66.1 µM and a TGI (XF 498 CNS) of 91 µM.

COC1CCC(CO)OO1 (stereo not drawn) gave a TGI (A498 renal) of 72.2 µM, a TGI (ACHN renal) of over 100 µM and a TGI (CCRF-CEM leukemia) of over 100 µM. It also gave a TGI (COLO 205 colon) of over 100 µM, a TGI (DMS 114 small cell lung) of 36.6 µM and a TGI (HCT-116 colon) of over 100 µM. It also gave a TGI (HL-60(TB) leukemia) of 58 µM, a TGI (HOP-62 NSCLC) of over 100 µM and a TGI (HOP-92 NSCLC) of over 100 µM. It also gave a TGI (HT29 colon) of over 100 µM, a TGI (IGROV1 ovarian) of 75.8 µM and a TGI (K-562 leukemia) of over 100 µM. It also gave a TGI (KM12 colon) of over 100 µM, a TGI (KM20L2 colon) of over 100 µM and a TGI (LXFL 529 NSCLC) of over 100 µM. For the same molecule, the TGI (M14 melanoma) was over 100 µM, the TGI (M19-MEL melanoma) was over 100 µM and the TGI (MALME-3M melanoma) was over 100 µM. For the same molecule, the TGI (MOLT-4 leukemia) was over 100 µM, the TGI (NCI-H23 lung) was over 100 µM and the TGI (NCI-H460 lung) was over 100 µM. The TGI (NCI-H522 lung) was 27.4 µM, the TGI (OVCAR-3 ovarian) was 80.5 µM and the TGI (OVCAR-4 ovarian) was over 100 µM. The TGI (OVCAR-5 ovarian) was over 100 µM, the TGI (RPMI-8226 leukemia) was 93.1 µM and the TGI (RXF 393 renal) was over 100 µM. For the same molecule, the TGI (SF-268 CNS) was over 100 µM, the TGI (SF-295 CNS) was 73.6 µM and the TGI (SF-539 CNS) was over 100 µM. The TGI (SK-MEL-2 melanoma) was over 100 µM, the TGI (SK-MEL-28 melanoma) was over 100 µM and the TGI (SK-OV-3 ovarian) was over 100 µM. For the same molecule, the TGI (SNB-19 CNS) was over 100 µM, the TGI (SNB-75 CNS) was over 100 µM and the TGI (SNB-78 CNS) was 66.9 µM. The TGI (SR leukemia) was over 100 µM, the TGI (U251 CNS) was over 100 µM and the TGI (UACC-257 melanoma) was over 100 µM. The TGI (UACC-62 melanoma) was over 100 µM and the TGI (UO-31 renal) was over 100 µM.
